Values after ≈ are worked out from the molar mass of the structure shown. Active and inactive are the calls of the source. No cut-off for these calls is given here.
Experiments:
[1] = system: MDA-MB-231; assay: Induction of apoptosis in human MDA-MB-231 cells assessed as viable cells at IC50 incubated for 72 hrs by Annexin V-FITC staining based flow cytometry analysis (reference value: 91.53 %); format: functional
[2] = system: MDA-MB-231; assay: Induction of cell cycle arrest in human MDA-MB-231 cells assessed as inhibition of cell division at IC50 incubated for 24 hrs by propidium iodide staining based flow cytometry analysis; format: functional
[3] = system: MDA-MB-231; assay: Induction of apoptosis in human MDA-MB-231 cells assessed as late apoptotic cells at IC50 incubated for 72 hrs by Annexin V-FITC staining based flow cytometry analysis (reference value: 3.07 %); format: functional
[4] = system: MDA-MB-231; assay: Induction of apoptosis in human MDA-MB-231 cells assessed as necrotic cells at IC50 incubated for 72 hrs by Annexin V-FITC staining based flow cytometry analysis (reference value: 1.17 %); format: functional
[5] = Selectivity index, ratio of IC50 for cytotoxicity against chinese hamster V79 cells to IC50 for cytotoxicity against human MDA-MB-231 cells; format: toxicity, cell-based; conditions: V79 cells versus MDA-MB-231 cells, read-out: Ratio IC50
[6] = system: A549; assay: Induction of apoptosis in human A549 cells assessed as early apoptotic cells at IC50 incubated for 72 hrs by Annexin V-FITC staining based flow cytometry analysis (reference value: 1.68 %); format: functional
[7] = system: Lipid bilayer; assay: Induction of ionic transport in azolectin bilayer membrane assessed as irregular disturbance in membrane permeability in presence of HEPES buffer by electrophysiology technique
[8] = system: MDA-MB-231; assay: Induction of apoptosis in human MDA-MB-231 cells assessed as early apoptotic cells at IC50 incubated for 72 hrs by Annexin V-FITC staining based flow cytometry analysis (reference value: 4.23 %); format: functional
[9] = Selectivity index, ratio of IC50 for cytotoxicity against human HaCaT cells to IC50 for cytotoxicity against human MDA-MB-231 cells; format: toxicity, cell-based; conditions: HaCaT cells versus MDA-MB-231 cells, read-out: Ratio IC50
[10] = system: Mitochondrial membrane; assay: Induction of mitochondrial membrane potential loss in human A549 cells assessed as red fluorescence at IC50 incubated for 48 hrs MitoTrackerRed CMXRos staining based flow cytometry analysis (reference value: 91.1 %); format: cell membranes
[11] = system: Lipid bilayer; assay: Induction of current generation in azolectin bilayer membrane upto 10 uM in presence of HEPES buffer by electrophysiology technique; format: cell membranes
[12] = Selectivity index, ratio of IC50 for cytotoxicity against chinese hamster V79 cells to IC50 for cytotoxicity against human A549 cells; format: toxicity, cell-based; conditions: V79 cells versus A549 cells, read-out: Ratio IC50
[13] = Selectivity index, ratio of IC50 for cytotoxicity against human HaCaT cells to IC50 for cytotoxicity against human SW480 cells; format: toxicity, cell-based; conditions: HaCaT cells versus SW480 cells, read-out: Ratio IC50
[14] = system: MDA-MB-231; assay: Effect on mitochondrial mass in human MDA-MB-231 cells assessed as increase in mean fluorescence intensity at IC50 incubated for 48 hrs by MitoTracker Green FM staining based flow cytometry analysis; format: functional, cell-based
[15] = system: MDA-MB-231; assay: Cytotoxicity against human MDA-MB-231 cells incubated for 72 hrs by MTT assay; format: functional, cell-based; conditions: MDA-MB-231, 72 h
[16] = system: PC-3; assay: Cytotoxicity against human PC-3 cells incubated for 72 hrs by MTT assay; format: functional, cell-based; conditions: PC-3, 72 h
[17] = Selectivity index, ratio of IC50 for cytotoxicity against chinese hamster V79 cells to IC50 for cytotoxicity against human SW480 cells; format: toxicity, cell-based; conditions: V79 cells versus SW480 cells, read-out: Ratio IC50
[18] = system: Staphylococcus epidermidis; assay: Antimicrobial activity against Staphylococcus epidermidis ATCC 35984 incubated for 18 hrs by twofold microdilution method; format: functional
[19] = system: Staphylococcus aureus; assay: Antimicrobial activity against Staphylococcus aureus ATCC 6538 incubated for 18 hrs by twofold microdilution method; format: functional
[20] = Selectivity index, ratio of IC50 for cytotoxicity against human HaCaT cells to IC50 for cytotoxicity against human A549 cells; format: toxicity, cell-based; conditions: HaCaT cells versus A549 cells, read-out: Ratio IC50
[21] = Selectivity index, ratio of IC50 for cytotoxicity against human HaCaT cells to IC50 for cytotoxicity against human SW620 cells; format: toxicity, cell-based; conditions: HaCaT cells versus SW620 cells, read-out: Ratio IC50
[22] = system: Lipid bilayer; assay: Induction of ionic transport in azolectin bilayer membrane assessed as specific channel-like structure formation in presence of HEPES buffer by electrophysiology technique
[23] = system: MDA-MB-231; assay: Induction of ROS generation of human MDA-MB-231 cells at IC50 incubated for 6 hrs by CellROX Green staining based spectrofluorometer analysis; format: functional, cell-based
[24] = system: A549; assay: Effect on mitochondrial mass in human A549 cells assessed as increase in mean fluorescence intensity at IC50 incubated for 48 hrs by MitoTracker Green FM staining based flow cytometry analysis; format: functional, cell-based
[25] = system: Staphylococcus aureus; assay: Antimicrobial activity against Staphylococcus aureus NCTC 4163 incubated for 18 hrs by twofold microdilution method; format: functional
[26] = system: SW480; assay: Cytotoxicity against human SW480 cells incubated for 72 hrs by MTT assay; format: functional, cell-based; conditions: SW480, 72 h
[27] = system: A549; assay: Induction of apoptosis in human A549 cells assessed as late apoptotic cells at IC50 incubated for 72 hrs by Annexin V-FITC staining based flow cytometry analysis (reference value: 1.86 %); format: functional
[28] = system: Mitochondrial membrane; assay: Induction of mitochondrial membrane potential loss in human MDA-MB-231 cells assessed as red fluorescence at IC50 incubated for 48 hrs MitoTrackerRed CMXRos staining based flow cytometry analysis (reference value: 91.1 %); format: cell membranes
[29] = system: Mitochondrial membrane; assay: Induction of mitochondrial membrane potential loss in human A549 cells assessed as green fluorescence at IC50 incubated for 48 hrs MitoTracker Green FM staining based flow cytometry analysis (reference value: 8.93 %); format: cell membranes
[30] = system: A549; assay: Induction of mitochondrial respiration in human A549 cells assessed as oxygen consumption rate at 0.1 to 10 uM by Oxygraph-2K system; format: functional, cell-based; conditions: dose 0.1-10 µM
[31] = system: Pseudomonas aeruginosa; assay: Antimicrobial activity against Pseudomonas aeruginosa ATCC 15442 incubated for 18 hrs by twofold microdilution method; format: functional
[32] = system: Escherichia coli; assay: Antimicrobial activity against Escherichia coli ATCC 25922 incubated for 18 hrs by twofold microdilution method; format: functional
[33] = system: A549; assay: Effect on mitochondrial function in human A549 cells assessed as change in mean fluorescence intensity at IC50 incubated for 48 hrs by MitoTracker Red CMXRos staining based flow cytometry analysis; format: functional, cell-based
[34] = Selectivity index, ratio of IC50 for cytotoxicity against chinese hamster V79 cells to IC50 for cytotoxicity against human SW620 cells; format: toxicity, cell-based; conditions: V79 cells versus SW620 cells, read-out: Ratio IC50
[35] = system: A549; assay: Induction of ROS generation of human A549 cells at IC50 incubated for 6 hrs by CellROX Green staining based spectrofluorometer analysis; format: functional, cell-based
[36] = Selectivity index, ratio of IC50 for cytotoxicity against chinese hamster V79 cells to IC50 for cytotoxicity against human PC-3 cells; format: toxicity, cell-based; conditions: V79 cells versus PC-3 cells, read-out: Ratio IC50
[37] = Cytotoxicity against human HaCaT cells incubated for 72 hrs by MTT assay; format: toxicity, cell-based
[38] = system: Lipid bilayer; assay: Induction of ionic transport in azolectin bilayer membrane assessed as membrane rupture in presence of HEPES buffer by electrophysiology technique
[39] = system: SW-620; assay: Cytotoxicity against human SW620 cells incubated for 72 hrs by MTT assay; format: functional, cell-based; conditions: SW-620, 72 h
[40] = system: Staphylococcus aureus; assay: Antimicrobial activity against Staphylococcus aureus ATCC 25923 incubated for 18 hrs by twofold microdilution method; format: functional
[41] = Cytotoxicity against chinese hamster V79 cells incubated for 72 hrs by MTT assay; format: toxicity, cell-based, Cricetulus griseus
[42] = system: A549; assay: Cytotoxicity against human A549 cells incubated for 72 hrs by MTT assay; format: functional, cell-based; conditions: A549, 72 h
[43] = system: A549; assay: Induction of apoptosis in human A549 cells assessed as necrotic cells at IC50 incubated for 72 hrs by Annexin V-FITC staining based flow cytometry analysis (reference value: 0.97 %); format: functional
[44] = system: A549; assay: Induction of apoptosis in human A549 cells assessed as viable cells at IC50 incubated for 72 hrs by Annexin V-FITC staining based flow cytometry analysis (reference value: 95.49 %); format: functional
[45] = Selectivity index, ratio of IC50 for cytotoxicity against human HaCaT cells to IC50 for cytotoxicity against human PC-3 cells; format: toxicity, cell-based; conditions: HaCaT cells versus PC-3 cells, read-out: Ratio IC50
[46] = system: Staphylococcus epidermidis; assay: Antimicrobial activity against Staphylococcus epidermidis ATCC 12228 incubated for 18 hrs by twofold microdilution method; format: functional
[47] = system: Staphylococcus aureus; assay: Antimicrobial activity against Staphylococcus aureus ATCC 29213 incubated for 18 hrs by twofold microdilution method; format: functional
[48] = system: Mitochondrial membrane; assay: Induction of mitochondrial membrane potential loss in human MDA-MB-231 cells assessed as green fluorescence at IC50 incubated for 48 hrs MitoTracker Green FM staining based flow cytometry analysis (reference value: 8.86 %); format: cell membranes

CC[C@@H](C(=O)[C@@H](C)[C@@H](O)[C@H](C)[C@@H]1O[C@@H]([C@@H](CC)C(=O)O)CC[C@@H]1C)[C@H]1O[C@]2(C=C[C@@H](O)[C@]3(CC[C@@](C)([C@H]4CC[C@](O)(CC)[C@H](C)O4)O3)O2)[C@H](C)C[C@@H]1C [SALINOMYCIN]
Activity [1]: 76.94% | Activity [2]: Active | Activity [3]: 11.49% | Activity [4]: 2.97% | selectivity ratio [5]: 1.2 | Activity [6]: 9.72% | Activity [7]: inactive | Activity [8]: 8.6% | selectivity ratio [9]: 0.66 | Activity [10]: 91.2% | Activity [11]: inactive | selectivity ratio [12]: 0.8 | selectivity ratio [13]: 0.6 | Activity [14]: Active; Slight Increase In Mfi Is Observed | IC50 [15]: 1.22 µM | IC50 [16]: 3 µM | selectivity ratio [17]: 1.1 | MIC [18]: 1 mg/L (≈ 1.33 µM) | MIC [19]: 0.5 mg/L (≈ 0.666 µM) | selectivity ratio [20]: 0.4 | selectivity ratio [21]: 0.4 | Activity [22]: inactive | Activity [23]: Active; Slight Insignificant Increase In Ros Level Was Observed | Activity [24]: Active; Slight Increase In Mfi Is Observed | MIC [25]: 0.5 mg/L (≈ 0.666 µM) | IC50 [26]: 1.36 µM | Activity [27]: 2.05% | Activity [28]: 76.7% | Activity [29]: 18.8% | Activity [30]: inactive | MIC [31]: > 256 mg/L | MIC [32]: > 256 mg/L | Activity [33]: inactive | selectivity ratio [34]: 0.8 | Activity [35]: Active; Slight Insignificant Increase In Ros Level Was Observed | selectivity ratio [36]: 0.5 | IC50 at 72 h [37]: 0.8 µM | Activity [38]: inactive | IC50 [39]: 1.81 µM | MIC [40]: 0.5 mg/L (≈ 0.666 µM) | IC50 at 72 h [41]: 1.44 µM | IC50 [42]: 1.86 µM | Activity [43]: 3.67% | Activity [44]: 84.56% | selectivity ratio [45]: 0.3 | MIC [46]: 0.5 mg/L (≈ 0.666 µM) | MIC [47]: 0.5 mg/L (≈ 0.666 µM) | Activity [48]: 23.4%

Reference: ChEMBL document CHEMBL6120978, “Anticancer activity of salinomycin quaternary phosphonium salts” (Eur J Med Chem, 2025)
